From ChEMBL document CHEMBL1201862, “PubChem BioAssay data set” (2004)
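48-hour exposure; five concentrations; linearly interpolated endpoints. GI50 is the concentration that inhibits growth by half.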 The source made the active and inactive calls. Cut-off read from the data, not from the text of the source: active = GI50 up to about 1.1 µM and inactive = higher.

What was measured:
Test in all cases: NCI-60 cell line screen, 48 h
A498 = tested on: A498
A549 = tested on: A549
ACHN = tested on: ACHN
BT-549 = tested on: BT-549
CAKI-1 = tested on: CAKI-1
CCRF-CEM = tested on: CCRF-CEM
COLO 205 = tested on: COLO 205
DU-145 = tested on: DU-145
EKVX = tested on: EKVX
HCT-116 = tested on: HCT-116
HCT-15 = tested on: HCT-15
HL-60 = tested on: HL-60
HOP-62 = tested on: HOP-62
HOP-92 = tested on: HOP-92
HT-29 = tested on: HT-29
Hs-578T = tested on: Hs-578T
IGROV-1 = tested on: IGROV-1
K562 = tested on: K562
LOX IMVI = tested on: LOX IMVI
M14 = tested on: M14
MCF7 = tested on: MCF7
MDA-MB-231 = tested on: MDA-MB-231
MDA-MB-435 = tested on: MDA-MB-435
MOLT-4 = tested on: MOLT-4
Malme-3M = tested on: Malme-3M
NCI-H226 = tested on: NCI-H226
NCI-H23 = tested on: NCI-H23
NCI-H460 = tested on: NCI-H460
NCI/ADR-RES = tested on: NCI/ADR-RES
OVCAR-3 = tested on: OVCAR-3
OVCAR-4 = tested on: OVCAR-4
OVCAR-5 = tested on: OVCAR-5
OVCAR-8 = tested on: OVCAR-8
PC-3 = tested on: PC-3
RPMI-8226 = tested on: RPMI-8226
RXF 393 = tested on: RXF 393
SF-268 = tested on: SF-268
SF-295 = tested on: SF-295
SF-539 = tested on: SF-539
SK-MEL-28 = tested on: SK-MEL-28
SK-MEL-2 = tested on: SK-MEL-2
SK-MEL-5 = tested on: SK-MEL-5
SK-OV-3 = tested on: SK-OV-3
SN12C = tested on: SN12C
SNB-19 = tested on: SNB-19
SR = tested on: SR
SW-620 = tested on: SW-620
T47D = tested on: T47D
TK-10 = tested on: TK-10
U-251 = tested on: U-251
UACC-257 = tested on: UACC-257
UACC-62 = tested on: UACC-62
UO-31 = tested on: UO-31

CC1(C)CCc2c(ccc(C(=O)/C=C/c3ccc(O)cc3)c2O)O1 [DORSMANNIN A]
GI50 (A498): 13.7 µM (inactive)
GI50 (A549): 11.9 µM (inactive)
GI50 (ACHN): 10.7 µM (inactive)
GI50 (BT-549): 12.2 µM (inactive)
GI50 (CAKI-1): 5.28 µM (inactive)
GI50 (CCRF-CEM): 2.78 µM (inactive)
GI50 (COLO 205): 10.9 µM (inactive)
GI50 (DU-145): 9.25 µM (inactive)
GI50 (EKVX): 0.142 µM (active)
GI50 (HCT-116): 10.3 µM (inactive)
GI50 (HCT-15): 10.8 µM
GI50 (HL-60): 19.7 µM (inactive)
GI50 (HOP-62): 9.91 µM (inactive)
GI50 (HOP-92): 11.2 µM (inactive)
GI50 (HT-29): 11.9 µM (inactive)
GI50 (Hs-578T): 14.1 µM (inactive)
GI50 (IGROV-1): 9.1 µM (inactive)
GI50 (K562): 27.8 µM (inactive)
GI50 (LOX IMVI): 10.2 µM (inactive)
GI50 (M14): 10.9 µM (inactive)
GI50 (MCF7): 14.2 µM (inactive)
GI50 (MDA-MB-231): 9.25 µM (inactive)
GI50 (MDA-MB-435): 10.3 µM (inactive)
GI50 (MOLT-4): 16.1 µM (inactive)
GI50 (Malme-3M): 7.59 µM (inactive)
GI50 (NCI-H226): 11.3 µM (inactive)
GI50 (NCI-H23): 12.5 µM (inactive)
GI50 (NCI-H460): 12.1 µM (inactive)
GI50 (NCI/ADR-RES): 11.4 µM (inactive)
GI50 (OVCAR-3): 8.99 µM (inactive)
GI50 (OVCAR-4): 9.48 µM (inactive)
GI50 (OVCAR-5): 11.6 µM (inactive)
GI50 (OVCAR-8): 12 µM (inactive)
GI50 (PC-3): 8.57 µM (inactive)
GI50 (RPMI-8226): 8.39 µM (inactive)
GI50 (RXF 393): 10.6 µM (inactive)
GI50 (SF-268): 12.9 µM (inactive)
GI50 (SF-295): 12.4 µM (inactive)
GI50 (SF-539): 11.9 µM (inactive)
GI50 (SK-MEL-28): 0.201 µM (active)
GI50 (SK-MEL-2): 11.9 µM (inactive)
GI50 (SK-MEL-5): 11.2 µM (inactive)
GI50 (SK-OV-3): 17.7 µM (inactive)
GI50 (SN12C): 10.9 µM (inactive)
GI50 (SNB-19): 13.9 µM (inactive)
GI50 (SR): 11.9 µM (inactive)
GI50 (SW-620): 13 µM (inactive)
GI50 (T47D): 1.56 µM (inactive)
GI50 (TK-10): 10.3 µM (inactive)
GI50 (U-251): 10.4 µM (inactive)
GI50 (UACC-257): 12.5 µM (inactive)
GI50 (UACC-62): 10 µM (inactive)
GI50 (UO-31): 12.3 µM (inactive)
